target: T1, human-type tau 0N4R isoform (recombinant tau) (Homo sapiens, UniProt P10636); experiment: sucrose density-gradient centrifugation fractionation of polymerized tau, electrophoresis and Western blotting; type: biochemical; conditions: 10 μM
T1 construct: Fractions including full-length recombinant tau were mixed together; made in house; host or cells: E. coli BL21(DE3)
Protocol: (§1) First of all, a plasmid expressing human-type tau 0N4R isoform (383 amino acid) was introduced into E. coli BL21(DE3) strain to purify a recombinant tau. The purification was carried out by modifying the method of Taniguchi et al. (see Taniguchi et al., 2008, JBC, 280, 7614). A soluble fraction was prepared based on E. coli in which tau expression had been induced with isopropyl-β-thiogalactopyranoside, and then fractionation was carried out with a phosphocellulose column (e.g., P11 column produced by Whatman). The fraction eluted at an NaCl concentration of 0.1 to 0.3 M was recovered to perform precipitation and concentration using ammonium sulfate. […] The yield and concentration of the tau thus obtained were analyzed by Coomassie Brilliant Blue (CBB) staining after the product was subjected to electrophoresis using 10% polyacrylamide gel.
(§2) The dried and purified recombinant tau sample was dissolved in purified water at a concentration of 0.9 mg/ml. […] Next, their fluorescence value (under excitation light at 360 nm and fluorescent light at 465 nm) was measured with a fluorescent plate reader (infinit F200 produced by TECAN). Thereafter, heparin was added so that the concentration would be 60 μg/ml and then incubation was carried out at 37° C. in a moisture retention box to measure a variation in fluorescence value with time. […]

T1 sequence (P10636 1-383 isoform P10636-6): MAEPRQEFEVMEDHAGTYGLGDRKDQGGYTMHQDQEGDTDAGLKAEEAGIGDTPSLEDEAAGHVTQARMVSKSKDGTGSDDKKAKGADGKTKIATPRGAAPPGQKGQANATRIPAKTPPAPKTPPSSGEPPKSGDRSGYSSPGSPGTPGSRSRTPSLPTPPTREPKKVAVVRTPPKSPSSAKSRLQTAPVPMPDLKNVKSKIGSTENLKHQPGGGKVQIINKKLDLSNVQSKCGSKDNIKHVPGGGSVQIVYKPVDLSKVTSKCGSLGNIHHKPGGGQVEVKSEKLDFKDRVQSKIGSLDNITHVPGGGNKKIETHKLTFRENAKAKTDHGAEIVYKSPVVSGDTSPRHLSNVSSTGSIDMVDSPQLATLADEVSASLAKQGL

| SMILES | quantity of the tau recovered in Fraction 3 (oligomer tau) | quantity of the tau recovered in Fractions 4 and 5 (fibrosed tau) |
| --- | --- | --- |
| CC(C)NCC(O)c1ccc(O)c(O)c1 (stereo not shown) [isoproterenol] | also seen to decrease | seen to decrease significantly |

target: T1, human-type tau 0N4R isoform (recombinant tau); experiment: tau aggregation inhibition experiment, thioflavin T fluorescence (heparin-induced); type: biochemical; conditions: 1 μM compound, compared to 1 μM isoproterenol under the same incubation condition
Protocol: First of all, a plasmid expressing human-type tau 0N4R isoform (383 amino acid) was introduced into E. coli BL21(DE3) strain to purify a recombinant tau. The purification was carried out by modifying the method of Taniguchi et al. (see Taniguchi et al., 2008, JBC, 280, 7614). A soluble fraction was prepared based on E. coli in which tau expression had been induced with isopropyl-β-thiogalactopyranoside, and then fractionation was carried out with a phosphocellulose column (e.g., P11 column produced by Whatman). The fraction eluted at an NaCl concentration of 0.1 to 0.3 M was recovered to perform precipitation and concentration using ammonium sulfate. The precipitate thus obtained was dissolved in a buffer containing 0.5 M of NaCl and 2% of 2-mercaptoethanol and then heated to 100° C. for five minutes. Then, the reactant was subjected to a centrifugation at 15,000×g for 15 minutes. The supernatant thus obtained was recovered and then subjected to precipitation and concentration with ammonium sulfate. The precipitate thus obtained was dissolved in a solution containing 20% of acetonitrile and 0.1% of formic acid so as to be purified using reversed phase HPLC (with a Cosmosil protein-R column produced by Nacalai Tesque). Fractions including full-length recombinant tau were mixed together and then the mixture thus obtained was dried with a freeze dryer to obtain a dried and purified recombinant tau sample. The yield and concentration of the tau thus obtained were analyzed by Coomassie Brilliant Blue (CBB) staining after the product was subjected to electrophoresis using 10% polyacrylamide gel.
The dried and purified recombinant tau sample was dissolved in purified water at a concentration of 0.9 mg/ml. […] Next, their fluorescence value (under excitation light at 360 nm and fluorescent light at 465 nm) was measured with a fluorescent plate reader (infinit F200 produced by TECAN). Thereafter, heparin was added so that the concentration would be 60 μg/ml and then incubation was carried out at 37° C. in a moisture retention box to measure a variation in fluorescence value with time. The incubation was carried out for 168 hours, the fluorescence value was measured, and then the reacted solution was recovered to prepare a sarcosyl insoluble fraction. The sarcosyl insoluble fraction was made to have a final concentration of 1% by adding an aqueous solution of 10% (one-tenth quantity of) sodium N-lauroylsarcosinate to the reacted solution recovered. The solution was subjected to incubation at 4° C. for 30 minutes and then subjected to a centrifugation at 100,000×g for 20 minutes to separate the supernatant and the precipitate from each other. With the supernatant fraction and the precipitate regarded as a soluble tau fraction and a sarcosyl insoluble fraction, respectively, the yield of tau was analyzed by electrophoresis using 10% polyacrylamide gel. Also, part of the reacted solution was fractionated by sucrose density-gradient centrifugation using the method of Maeda et al. (see Maeda et al., 2007, Biochemistry, 46, 3856). After the centrifugation, the reactant was fractioned into 1 to 6 according to density and the tau yield was analyzed by 10% polyacrylamide gel electrophoresis and Western blotting.
During screening, the concentration of the compound was supposed to be 1 μM and compared to the effect achieved by 1 μM of isoproterenol under the same incubation condition.

| SMILES | tau polymerization inhibitory activity (thioflavin T activity) |
| --- | --- |
| Oc1ccc(C(O)CN2CCOCC2)cc1O (stereo not shown) [1-(3,4-dihydroxyphenyl)-2-morpholinoethanol] | somewhat higher tau polymerization inhibitory activity than isoproterenol and catechol |
| O=Cc1cccc(O)c1O [2,3-dihydroxybenzaldehyde] | also exhibited as high tau polymerization inhibitory activity |
| COc1ccc(CCN)cc1OC [2-(3,4-dimethoxy)ethylamine] | nor 2-(3,4-dimethoxy)ethylamine (indicated by 3,4-DMPT and represented by the following Chemical Formula (10)) exhibited any tau polymerization inhibitory activity |
| Cn1ccnc1C(O)CN (stereo not shown) [2-amino-1-(1-methyl-1H-imidazol-2-yl)ethanol] | none of these compounds exhibited the tau polymerization inhibitory activity |
| NCC(O)c1ccc(Cl)c(Cl)c1 (stereo not shown) [2-amino-1-(3,4-dichlorophenyl)ethanol] | No tau polymerization inhibitory activities |
| NCC(O)c1ccco1 (stereo not shown) [2-amino-1-(furan-2-yl)ethanol] | none of these compounds exhibited the tau polymerization inhibitory activity |
| NCC(O)c1cccnc1 (stereo not shown) [2-amino-1-(pyridine-3-yl)ethanol] | none of these compounds exhibited the tau polymerization inhibitory activity |
| NCC(O)c1ccccc1 (stereo not shown) [2-amino-1-phenylethanol] | No tau polymerization inhibitory activities |
| CC(=O)c1ccc(O)c(O)c1 [3,4-dihydroxyacetophenone] | as high tau polymerization inhibitory activity as isoproterenol and catechol |
| O=Cc1ccc(O)c(O)c1 [3,4-dihydroxybenzaldehyde] | exhibited no tau polymerization inhibitory activity |
| NCc1ccc(O)c(O)c1 [3,4-dihydroxybenzylamine] | as high tau polymerization inhibitory activity as isoproterenol and catechol |
| Nc1cccc(O)c1O [3-aminocatechol] | inhibited the tau polymerization as strongly as 4-aminocatechol did |
| COc1cccc(O)c1O [3-methoxycatechol] | also exhibited as high tau polymerization inhibitory activity |
| NCCCC(=O)Nc1ccc(O)c(O)c1 [4-(4-aminobutanoylamino) catechol] | decreased significantly to almost the same level as isoproterenol's |
| CC(C)CCN(CCC(C)C)c1ccc(O)c(O)c1 [4-(diisopentylamino) catechol] | decreased significantly to almost the same level as isoproterenol's |
| CC(C)CCNc1ccc(O)c(O)c1 [4-(isopentylamino) catechol] | intense tau polymerization inhibitory activity did not change |
| O=C(Nc1ccc(O)c(O)c1)N1CCOCC1 [4-(morpholinocarbonylamino) catechol] | intense tau polymerization inhibitory activity slightly decreased |
| O=C(CCl)c1ccc(O)c(O)c1 [4-chloroacetylcatechol] | somewhat higher tau polymerization inhibitory activity than isoproterenol and catechol |
| Oc1ccc(Cl)cc1O [4-chlorocatechol] | as high tau polymerization inhibitory activity as isoproterenol and catechol |
| COc1ccc(O)c(O)c1 [4-methoxycatechol] | did not affect 1,2,4-benzenetriol's intense tau polymerization inhibitory activity |
| CC(C)(C)c1ccc(O)c(O)c1 [4-tert-butylcatechol] | as high tau polymerization inhibitory activity as isoproterenol and catechol |
| COc1ccc(CCN)cc1OC [homoveratylamine] | Neither homoveratylamine (indicated by HV and represented by the following Chemical Formula (9)) nor 2-(3,4-dimethoxy)ethylamine (indicated by 3,4-DMPT and represented by the following Chemical Formula (10)) exhibited any tau polymerization inhibitory activity |

target: T1, human-type tau 0N4R isoform (recombinant tau); experiment: quantity of sarcosyl insoluble tau by electrophoresis after 168 hours incubation; type: biochemical; conditions: incubation for 168 hours; 0.1-100 μM
Protocol: as §1, §2

| SMILES | inhibition of tau polymerization (sarcosyl insoluble tau), concentration dependence |
| --- | --- |
| CC(C)NCC(O)c1ccc(O)c(O)c1 (stereo not shown) [isoproterenol] | inhibited the tau polymerization depending on the concentration |
